Experiments:
[1] = tested on: Sprague Dawley rats; experiment: Induced penile erection by intravenous injection; assay type: in vivo; details: for dose resulting in (equivalent) penile response: intravenous injection in rats; for efficacious dose, efficacy determined by induction of penile erection in 100% of animals: intravenous injection, rats; for % Rats with Penile Erection / Number of Erections/Rat/30 Minutes: intravenous
[2] = tested on: human MC4-R; experiment: Agonist activity by cAMP detection in transfected HEK 293 cells; assay type: cell-based; details: conclusion from cAMP results
Method: HEK 293 cells, stably transfected with human MC4-R, were used. […] Following incubation, the medium was aspirated and cell layers extracted. The total cAMP accumulation in fixed quantities of cell extract was determined by competitive immunoassay using the cAMP kit.

[3] = target: MC5-R; details: read-out: RELATIVE BINDING (KI) MC5-R; competitive inhibition; transfected HEK 293 cells
Method: (§1) Relative binding was determined by competitive inhibition using α-MSH. B16-F1 melanoma cells were used as the source of MC1 receptors; HEK 293 cells, transfected with human melanocortin receptor sequences, were used as the source of MC3, MC4 and MC5 receptors; and Y1 cells were used as the source of MC2 receptors.

[4] = target: MC3-R; details: read-out: RELATIVE BINDING (KI) MC3-R; competitive inhibition; transfected HEK 293 cells
Method: as §1

[5] = tested on: Sprague Dawley rats; experiment: Induced penile erection by intranasal administration (dosing study); assay type: in vivo; details: for % Rats with Penile Erection / Number of Erections/Rat/30 Minutes: intranasal
[6] = tested on: men with psychogenic erectile dysfunction; details: subcutaneous, 0.025 to 0.157 mg/kg body weight; cited from earlier work
[7] = target: MC1-R; details: read-out: RELATIVE BINDING (KI) MC1-R; competitive inhibition; B16-F1 melanoma cells as receptor source
Method: as §1

Substance: Ac-Nle-cyclo(-Asp-His-D-Phe-Arg-Trp-Lys)-OH [Compound 1]
- dose resulting in (equivalent) penile response [1]: 2 µg/kg of body weight
- efficacious dose, efficacy determined by induction of penile erection in 100% of animals [1]: ≥ 1 µg/kg of body weight
- agonist activity to MC4-R [2]: exhibits agonist activity

Substance: Melanotan-II
- Ki [3]: 69.5 nM
- Ki [4]: 23.7 nM
- % Rats with Penile Erection ([5]; dose 100 µg/kg): 25%
- Number of Erections/Rat/30 Minutes ([5]; dose 100 µg/kg): 0.25
- % Rats with Penile Erection ([5]; dose 500 µg/kg): 100%
- Number of Erections/Rat/30 Minutes ([5]; dose 500 µg/kg): 1.0
- period in which the penile erection response primarily occurred ([5]; nasal administration, rats, 30 minutes): 2nd and 3rd ten-minute period
- dose resulting in (equivalent) penile response [1]: 100 µg/kg of body weight
- efficacious dose, efficacy determined by induction of penile erection in 100% of animals [1]: ≥ 100 µg/kg of body weight
- % Rats with Penile Erection ([1]; dose 10.0 µg/kg): 17%
- Number of Erections/Rat/30 Minutes ([1]; dose 10.0 µg/kg): 0.3
- % Rats with Penile Erection ([1]; dose 100.0 µg/kg): 75%
- Number of Erections/Rat/30 Minutes ([1]; dose 100.0 µg/kg): 1.0
- treated men developing clinically apparent erections [6]: 8 of 10
- Ki [7]: 0.12 nM

From patent EP1593384A2, “Compositions for treatment of sexual dysfunction” (Palatin Technologies, Inc., priority 1999, dated 2005)
